# According to patent publication US20090270312A1, “HIV-I GP41 FUSION PEPTIDES FOR IMMUNOMODULALTION” (priority 2005, published 2009):
# Residues, ends and D or L forms follow the SMILES beside them.
# What was measured:
# lymph node cells (LNC) [1] = assay: Cell survival in culture with peptide; type: cell-based, rat; conditions: cells incubated with peptide
# lymph node cells (LNC) [2] = assay: T-cell proliferation of mice LNC with MOG 35-55 peptide antigen; type: cell-based; conditions: MOG35-55 peptide
# Lewis rats = assay: Adjuvant Arthritis (AA); type: in vivo, rat; conditions: 100 μg peptide in IFA with Mt at AA induction
# Procedure: Induction and Assessment of Adjuvant Arthritis (AA). To test the effect of FP on T-cell activation in vivo, AA was used as a model system. AA was induced by injecting 50 μl of Mt suspended in IFA (0.5 mg/ml) at the base of the tail. At the time of AA induction, each rat also received 100 μg of FP or control peptide, or PBS dissolved in 50 μl of IFA and mixed with Mt/IFA used to induce AA. The day of AA induction was designated as day 0. Disease severity was assessed by direct observation of all 4 limbs in each animal. A relative score between 0 and 4 was assigned to each limb, based on the degree of joint inflammation, redness and deformity; thus the maximum possible score for an individual animal was 16 (Quintana et al., 2002). The mean AA score (±SEM) is shown for each experimental group. Arthritis was also quantified by measuring hind limb diameter with a caliper. Measurements were taken on the day of the induction of AA and 26 days later (at the peak of AA); the results are presented as the mean±SEM of the difference between the two values for all the animals in each group. The person who scored the disease was blinded to the identity of the groups.
# AA was induced in rats as indicated above; at the time of AA induction, each rat also received 100 μg of IFFA or PBS dissolved in 50 μl of IFA and mixed with Mt/IFA used to induce AA. Disease severity was assessed as described above.
# lymph node cells (LNC) [3] = assay: T-cell proliferation of LNC from Mt immunized rats ([methyl-3H]-thymidine incorporation); type: cell-based; conditions: rat LNC, PPD 25 μg/ml
# Procedure: T-cell proliferation. T-cell proliferation assays were performed using either lymph node cells (LNC) or the A2b T cell line, which reacts with the Mt176-90 peptide. Popliteal and inguinal LNC were removed 26 days after the injection of Mt in incomplete Freund's adjuvant (IFA), when strong T cell responses to PPD and Mt176-90 are detectable (Quintana et al., 2002). LNC were cultured at a concentration of 2×10^5 cells per well; 5×10^4 A2b T cells were stimulated in the presence of irradiated 5×10^5 thymic antigen presenting cells (APC) per well, prepared as previously described (van Eden et al., 1985). The cells were plated in quadruplicates in 200 μl round bottom microtiter wells (Costar Corp., Cambridge, USA), with or without antigen, in the presence of various concentrations of the peptides under study. For some experiments, the cells were activated with immobilized anti-CD3 antibodies or PMA/ionomycin as described (Wang et al., 2002). Cultures were incubated for 72 hr at 37° C. in a humidified atmosphere of 7.5% CO2. T-cell responses were detected by the incorporation of [methyl-3H]-thymidine (Amersham, Buckinghamshire, UK; 1 μCi/well), added during the last 18 hr of incubation. The results of T cell proliferation experiments are shown as the % of inhibition of the T cell proliferation triggered by the antigenin the absence of HIV or control peptides. […]
# LNC from injected rats = assay: T cell immunity to the injected peptide: IFN-γ secretion of LNC incubated ex vivo with the same peptide; type: in vivo, rat
# Description: Cytokine assays. Supernatants were collected after 72 hr of stimulation, and rat IL-10 and IFNγ were quantified by enzyme-linked immunosorbent assay (ELISA) using Pharmingen's OPTEIA kit (Pharmingen, San Diego, USA) as described (Quintana et al., 2002). When needed, cytokine levels are expressed as percentage of cytokine inhibition relative to cytokine levels when no peptide is present. Otherwise, the cytokines are shown as pg/ml. The lower limits of detection for the experiments described in this paper were 15 pg/ml for IL-10 and IFNγ. Cytokine amounts were calculated based on calibration curves constructed using recombinant cytokines as standards.
# Rats were injected with FP, a control peptide (V2E or IFFA) or PBS in the presence of Mt and IFA. Twenty six days later, LNC were collected and incubated ex vivo with FP, V2E, IFFA, or PBS, respectively, and their IFN-γ secretion level was determined. […] LNC (incubated with PBS). […] Thus, the immunosuppressive effect of FP is sequence and structure specific.
# gp41 = gp41 (Human immunodeficiency virus type 1 group M subtype B, UniProt P04578); conditions: effect of incorporation of D amino acids; cited from earlier work
# Chain of gp41 (P04578 512-856): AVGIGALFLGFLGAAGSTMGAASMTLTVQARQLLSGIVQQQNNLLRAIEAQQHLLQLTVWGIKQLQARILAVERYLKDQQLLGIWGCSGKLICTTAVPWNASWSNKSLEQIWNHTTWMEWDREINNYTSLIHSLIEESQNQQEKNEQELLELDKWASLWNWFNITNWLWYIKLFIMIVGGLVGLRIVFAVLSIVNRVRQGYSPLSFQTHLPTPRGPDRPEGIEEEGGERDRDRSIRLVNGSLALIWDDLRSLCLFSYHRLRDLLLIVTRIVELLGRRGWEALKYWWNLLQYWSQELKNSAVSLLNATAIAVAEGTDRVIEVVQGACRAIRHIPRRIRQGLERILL
# Balb/c mice = assay: DTH response to oxazolone, dermal treatment; type: in vivo; conditions: 100 μg in 40 μl DMSO on the ear one hour after challenge, measured 24 h after challenge
# Procedure: In other experiments, DTH response to oxazolone in the presence of FP and IFFA was measured. Female Balb/c mice (5 mice per group) were sensitized to the shaved abdominal skin with 100 microliter of 2% oxazolone dissolved in acetone/olive oil (4:1 vol/vol) applied topically, and 5 days later challenged with 20 microliter of 0.5% oxazolone in acetone/olive oil, 10 microliter administered to each side of the ear. One hour after stimulation, FP, IFFA (100 μg in 40 μl DMSO) or DMSO were administered to each side of the ear. A constant area of the ear was measured immediately before challenge and 24 h after challenge.
compound,measurement,setting,value
CC[C@H](C)[C@H](NC(=O)CNC(=O)[C@@H](NC(=O)[C@H](C)N)C(C)C)C(=O)NCC(=O)N[C@@H](C)C(=O)N[C@@H](CC(C)C)C(=O)N[C@@H](Cc1ccccc1)C(=O)N[C@@H](CC(C)C)C(=O)NCC(=O)N[C@@H](Cc1ccccc1)C(=O)N[C@@H](CC(C)C)C(=O)NCC(=O)N[C@@H](C)C(=O)N[C@@H](C)C(=O)NCC(=O)N[C@@H](CO)C(=O)N[C@H](C(=O)N[C@@H](CCSC)C(=O)NCC(=O)N[C@@H](C)C(=O)N[C@@H](CCCNC(=N)N)C(=O)N[C@@H](CO)C(=O)N[C@@H](CCSC)C(=O)N[C@H](C(=O)N[C@@H](CC(C)C)C(=O)N[C@H](C(=O)N[C@H](C(=O)N[C@@H](CCC(N)=O)C(=O)N[C@@H](C)C(=O)N[C@@H](CCCNC(=N)N)C(=O)N[C@@H](CCC(N)=O)C(=O)N[C@@H](CC(C)C)C(=O)O)C(C)C)[C@@H](C)O)[C@@H](C)O)[C@@H](C)O [FP],survival of cells in culture,lymph node cells (LNC) [1],the same survival in culture
CC[C@H](C)[C@H](NC(=O)CNC(=O)[C@H](CCC(=O)O)NC(=O)[C@H](C)N)C(=O)NCC(=O)N[C@@H](C)C(=O)N[C@@H](CC(C)C)C(=O)N[C@@H](Cc1ccccc1)C(=O)N[C@@H](CC(C)C)C(=O)NCC(=O)N[C@@H](Cc1ccccc1)C(=O)N[C@@H](CC(C)C)C(=O)NCC(=O)N[C@@H](C)C(=O)N[C@@H](C)C(=O)NCC(=O)N[C@@H](CO)C(=O)N[C@H](C(=O)N[C@@H](CCSC)C(=O)NCC(=O)N[C@@H](C)C(=O)N[C@@H](CCCNC(=N)N)C(=O)N[C@@H](CO)C(=O)N[C@@H](CCSC)C(=O)N[C@H](C(=O)N[C@@H](CC(C)C)C(=O)N[C@H](C(=O)N[C@H](C(=O)N[C@@H](CCC(N)=O)C(=O)N[C@@H](C)C(=O)N[C@@H](CCCNC(=N)N)C(=O)N[C@@H](CCC(N)=O)C(=O)N[C@@H](CC(C)C)C(=O)O)C(C)C)[C@@H](C)O)[C@@H](C)O)[C@@H](C)O [V2E],survival of cells in culture,lymph node cells (LNC) [1],the same survival in culture
"CC[C@H](C)[C@H](NC(=O)[C@H](CS)NC(=O)[C@H](CCCNC(=N)N)NC(=O)[C@H](CC(C)C)NC(=O)[C@H](CC(C)C)NC(=O)[C@H](C)NC(=O)[C@H](CS)NC(=O)CNC(=O)CNC(=O)CNC(=O)[C@H](CC(C)C)NC(=O)[C@@H](N)C(C)C)C(=O)N1CCC[C@H]1C(=O)N[C@@H](C)C(=O)N[C@@H](CC(C)C)C(=O)N[C@@H](CC(=O)O)C(=O)N[C@@H](CO)C(=O)N[C@@H](CC(C)C)C(=O)N[C@H](C(=O)N1CCC[C@H]1C(=O)N[C@@H](C)C(=O)N[C@@H](CC(N)=O)C(=O)N[C@@H](CCC(=O)O)C(=O)N[C@@H](CC(=O)O)C(=O)O)[C@@H](C)O [p277, reference compound] (H-VLGGGCALLRCIPALDSLTPANED-OH)",survival of cells in culture,lymph node cells (LNC) [1],the same survival in culture
AVGIGALF (Peptides derived of HIV-1 gp41) [FP1-8],inhibition of antigen-specific T cell proliferation,lymph node cells (LNC) [2],inhibit antigen-specific T cell proliferation
AVGIGALFLGFLGAAGSTMGARSMTLTVQARQL [IFFA],"arthritis, clinical score",Lewis rats,milder arthritis
same,inhibition of antigen-specific T cell proliferation,lymph node cells (LNC) [3],inhibit antigen-specific T cell proliferation
same,ex vivo activation relative to FP,LNC from injected rats; LNC collected 26 days after injection,about ten fold more than FP
same,ex vivo activation (IFN-γ secretion) of LNC by the injected peptide,LNC from injected rats; LNC collected 26 days after injection with Mt and IFA,highly reactive to IFFA ex vivo
same,ability to inhibit gp41-mediated membrane fusion,gp41,does not affect its ability to inhibit gp41-mediated membrane fusion
same,DTH reaction to oxazolone,Balb/c mice,inhibited the DTH reaction
GALFLGFLG (Peptides derived of HIV-1 gp41) [FP5-13],inhibition of antigen-specific T cell proliferation,lymph node cells (LNC) [2],inhibit antigen-specific T cell proliferation
